# Patent US6291496A, “Treating cancers associated with overexpression of class I family of receptor tyrosine kinases” (priority 1999, dated 2001)
# Legend:
# [1] = test system: HER-2/neu in 184B5/HER cells; assay: immunoblot for HER-2/neu in 184B5/HER cells; format: cell-based, human; conditions: 25 μM ciglitazone or 20 μM 15-d-PGJ2, 24 hours
# Excerpt: The 184B5/HER cell line was obtained from a collaborator and was derived by stably transfecting 184B5 cells with a mutationally activated HER-2/neu oncogene; these cells form rapidly growing tumors when injected into athymic nude mice. The 184B5/HER cell line is described in Pierce, J. H., et al., Oncogene 6, 1189-1194 (1991). The BT-474 cell line is a human breast cancer adenocarcinoma cell line which overexpresses HER-2/neu, and was obtained from the American Type Culture Collection (Manassas, Va.) and bears accession number ATCC HBT-20.
# 184B5/HER cells were maintained in MEM-KBM mixed in a ratio of 1:1 (basal medium) containing epidermal growth factor (10 ng/ml), hydrocortisone (0.5 μg/ml), transferrin (10 μg/ml), gentamicin (5 μg/ml) and insulin (10 μg/ml) (growth medium). […] cells were grown to 60% confluence, trypsinized with 0.05% trypsin-2 mM ethylenediaminotetraacetic acid, and plated for experimental use. […]
# 184B5/HER cells were treated with vehicle (0.01% dimethylsulfoxide), 25 μM ciglitazone (Biomol, Plymouth Meeting, Pennsylvania) or 20 μM 15-d-PGJ2 (Biomol, Plymouth Meeting, Pennsylvania) for 24 hours. […] The protein concentration of the supernatant was measured by the method of Lowry, O. H., et al, J. Biol. Chem. 193, 265-275 (1951). […]
# [2] = test system: HER-2/neu promoter; assay: transient transfection assay, human HER-2/neu promoter construct ligated to luciferase, 184B5/HER cells; format: cell-based; conditions: 0-25 μM, 24 hours, FIG. 1
# Experimental: To determine whether PPARγ ligands inhibit HER-2/neu promoter activity, a transient transfection assay was performed. 184B5/HER cells were transfected with 1.8 μg of a human HER-21neu promoter construct ligated to luciferase (-1571/--24) and 0.2 μg pSVβgal (Promega Corp., Madison Wis.). The HER-2/neu promoter (-1571/--24) is described in Hudson, L. G. et al, J. Biol. Chem. 265, 4389-4393 (3/90), the whole of which is incorporated herein by reference. The promoter constructs are described in Hudson, L. G., et al, Cell 62, 1165-1175(1990). 184B5/HER cells were seeded at a density of5×10^4 cells well in 6-well dishes and grown to 50-60% confluence. For each well, 2 μg of […] DNA were introduced into cells using 8 μg of LIPOFECTAMINE (Life Technologies, Inc., Grand Island, N.Y.) as per the manufacturer's instructions. Following transfection, the cells were treated with ciglitazone (0, 5, 10, 15, 20 and 25 μM) or 15d-PGJ2 (0, 5, 10, 15, 20 and 25 μM) for 24 hours.
# The activities of luciferase and β-galactosidase were measured in cellular extract as described in Mestre, J. R. et al, Cancer Res. 57, 1081-1085 (1997).
# [3] = test system: EGFR in 184B5 mammary epithelial cells; assay: immunoblot for EGFR in 184B5 cells; format: cell-based, human; conditions: ciglitazone 5-30 μM or 15-d-PGJ2 5, 10 μM, 24 hours
# Experimental: The cells used were 184B5 cells. The 184B5 cell line was obtained from a collaborator and is an immortalized but non-tumorigenic human breast epithelial cell line that was established from a reduction mammaplasty and is described in Stampler, M. R, et al, Proc. Natl. Acad. Sci. USA 82, 2394-2398 (1985).
# 184B5 cells were maintained in MEM-KBM mixed in a ratio of 1:1 (basal medium) containing epidermal growth factor (10 ng/ml), hydrocortisone (0.5 μg/ml), transferrin (10 μg/ml), gentamicin (5 μg/ml), and insulin (10 μg/ml) (growth medium). 184B5 cells were grown to 60% confluence, trypsinized with 0.05% trypsin-2 mM ethylenediaminotetraacetic acid and plated for experimental use.
# 184B5 cells were treated with vehicle (0.01% dimethyl sulfoxide), ciglitazone (5, 10, 20, 30 μM) or 15-d-PGJ2 (5, 10 μM) for 24 hours. Cell lysates were prepared in RIPA buffer. Lysates were sonicated for 20 seconds on ice and centrifuged at 10,000×g for 10 minutes to sediment the particulate material. The protein concentration of the supernatant was measured by the method of Lowry,. O. H., et al, J. Biol. Chem. 193, 265-275 (1951). Cellular lysate protein (100 μg/lane) was loaded onto a 10% SDS-polyacrylamide gel, electrophoresed and subsequently transferred onto a nitrocellulose membrane(Schleicher & Schuell Keene, N. H.). […]
# [4] = test system: EGFR promoter; assay: transient transfection assay, human EGFR promoter construct ligated to luciferase, 184B5 cells; format: cell-based; conditions: 0-25 μM, 24 hours, FIG. 2
# Experimental: To determine whether PPARγ ligands inhibit EGFR promoter activity, a transient transfection assay was performed, 184B5 cells were transfected with 1.8 μg of a human EGFR promoter construct ligated luciferase (-1100/-19) and 0.2 μg pSVβgal (Promega Corp., Madison, Wis.). The EGFR promoter is described in Hudson, L. G., et al, Cell 62, 1165-1175 (1990), the whole of which is incorporated herein by reference. 184B5 cells were seeded at a density of 5×10^4 cells/well in 6-well dishes and grown to 50-60% confluence. For each well 2 μg of […] DNA were introduced into cells using 8 μg of LIPOFECTAMINE (Life Technologies, Inc., Grand Island, N.Y.) as per the manufacturers instructions. Following transfection, the cells were treated with ciglitazone (0, 5, 10, 15, 20 and 25 μM) or 15-d-PGJ2 (0, 5, 10, 15, 20, and 25 μM) for 24 hours. The activities of luciferase and β-galactosidase were measured in cellular extract as described in Mestre, J. R, et al, Cancer Res. 57, 1081-1085 (1997). The results are shown in FIG. 2 where luciferase activity represents data that have been normalized to β-galactosidase activity (columns, means; bars, S. D., n=6; * means p<0.01 compared to control).
# [5] = test system: HER-2/neu mRNA; assay: Northern blotting for HER-2/neu mRNA in 184B5/HER cells; format: cell-based, human; conditions: 25 μM ciglitazone or 20 μM 15-d-PGJ2
# Experimental: Northern blotting was performed to evaluate whether PPARγ ligands decrease levels of HER-2/neu mRNA. 184B5/HER cells were treated with vehicle (0.01% dimethyl sulfoxide), 25 μM ciglitazone or 20 μM 15-d-PGJ2. Total cellular RNA was isolated from cell monolayers using an RNA isolation kit from Qiagen Inc. 10 μg of RNA was added to each lane. The 10 μg of total cellular RNA per lane were electrophoresed in a formaldehyde-containing 1.2% agarose gel and transferred to nylon-supported membranes. The blot was hybridized with probes that recognized HER-2/neu mRNA (Santa Cruz Biotechnology, Inc., Santa Cruz, Calif.) and 18S rRNA cDNA (Ambion, Inc., Austin, Tex.).
# [6] = target: human PPARγ binding domain; conditions: scintillation proximity assay, radioligand [3H]BRL 49653; values reported in Henke et al, Collins et al, Cobb et al; cited from earlier work
# [7] = test system: non-small cell lung carcinoma where EGFR is overexpressed; assay: Example VI: non-small cell lung carcinoma metastasized to liver; format: in vivo, human; conditions: patient, oral 5 mg/kg twice daily
# Experimental: After one month, PPARγ ligand administration is continued in combination with infusion of cisplatin every four weeks at 60 mg/m^2 for 12 more weeks.
# [8] = test system: head and neck carcinoma where EGFR is overexpressed; assay: Example VII: head and neck carcinoma; format: in vivo, human; conditions: after the 12 weeks of CETUXIMAB and cisplatin, oral 5 mg/kg twice daily for 12 weeks
# Experimental: Concurrently cisplatin is infused every four weeks at 60 mg/m^2.
# [9] = test system: HER-2/neu positive breast cancer metastasized to bone; assay: Example IV: breast cancer metastasized to bone; format: in vivo, human; conditions: patient after failure of prior chemotherapy, oral 5 mg/kg twice daily plus HERCEPTIN
# Experimental: After 90 days, oral cyclophosphamide at a dose of 3 mg/kg/day and doxorubicin administered intravenously weekly at a dose of 20 mg/m^2, are added to the drug regimen.
# [10] = physchem; conditions: ph 7.4 buffer, pH 7.4, aqueous buffer
# [11] = test system: HER-2/neu positive breast cancer; assay: Example II: adjuvant therapy with PPARγ ligand and HERCEPTIN; format: in vivo, human; conditions: patient, oral 5 mg/kg twice daily for one year, with HERCEPTIN 250 mg IV loading then 10 weekly doses of 125 mg
# [12] = test system: HER-2/neu positive breast cancer; assay: Example I: adjuvant therapy after mastectomy; format: in vivo, human; conditions: patient, oral 5 mg/kg twice per day for five years after mastectomy
# [13] = test system: EGFR positive breast cancer; assay: Example IX: adjuvant therapy after mastectomy; format: in vivo, human; conditions: patient, oral 5 mg/kg twice daily for five years after mastectomy
# [14] = test system: HER-2/neu positive breast cancer metastasized to lung and liver; assay: Example III: breast cancer metastasized to lung and liver; format: in vivo, human; conditions: patient, oral 5 mg/kg twice daily
# Experimental: After three months, the PPARγ ligand administration is continued in combination regimen with Taxol® at a dose of 175 mg/m^2 administered intravenously every three weeks.
# [15] = test system: Stage IV EGFR positive breast cancer tumors; assay: Example VIII: breast cancer with Stage IV EGFR positive tumors; format: in vivo, human; conditions: oral 5 mg/kg twice daily in combination with CETUXIMAB and Taxol
# [16] = test system: HER-2/neu positive colon cancer; assay: Example V: after resection of colon cancer; format: in vivo, human; conditions: patient, oral 5 mg/kg twice daily for five years after resection
SMILES,pKi in binding assay using the human PPARγ binding domain [6],tumor burden [7],tumor burden [8],tumor burden [9],recurrence of breast cancer [11],recurrence of breast cancer [12],other results
"CCCCC/C=C/C=C1/C(=O)C=C[C@@H]1C/C=C\CCCC(=O)O [15-d-PGJ2, 15-deoxy-Δ12, 14-prostaglandin J2]",–,–,–,–,–,–,amount of HER-2/neu (immunoblot) [1]: decreased the amount of HER-2/neu; HER-2/neu promoter activity (luciferase normalized to β-galactosidase) [2]: inhibited HER-2 neu promoter activity in a dose-dependent fashion; amounts of EGFR (immunoblot) [3]: decreased amounts of EGFR; EGFR promoter activity (luciferase normalized to β-galactosidase) [4]: inhibited EGFR promoter activity in a dose-dependent fashion; amounts of HER-2/neu mRNA (Northern blot) [5]: decrease amounts of HER-2/neu mRNA
CCOC(=O)c1ccccc1N[C@@H](Cc1ccc(OCCc2nc(-c3ccccc3)oc2C)cc1)C(=O)O [#64],8.52±0.03,–,–,–,–,–,–
CCCOC(=O)c1ccccc1N[C@@H](Cc1ccc(OCCc2nc(-c3ccccc3)oc2C)cc1)C(=O)O [#65],8.62±0.03,–,–,–,–,–,–
Cc1oc(-c2ccccc2)nc1CCOc1ccc(C[C@H](Nc2ccccc2C(=O)OC(C)C)C(=O)O)cc1 [#66],9.01±0.00,–,–,–,–,–,–
"COC(=O)c1ccccc1N[C@@H](Cc1ccc(OCCc2nc(-c3ccccc3)oc2C)cc1)C(=O)O [GW7845, (S)-2-(1-carboxy-2-{4-[2-(5-methyl-2-phenyloxazol-4-yl)ethoxy]phenyl}ethylamino)benzoic acid methyl ester]",–,reduced tumor burden,further reduced tumor burden,reduced tumor burden,Recurrence of breast cancer does not occur,recurrence of breast cancer does not occur,solubility [10]: 300 µg/mL
CN(CCOc1ccc(CC2SC(=O)NC2=O)cc1)c1ccccn1 (stereo not drawn) [rosiglitazone],7.33±0.02,reduced tumor burden,further reduced tumor burden,reduced tumor burden,Recurrence of breast cancer does not occur,Recurrence of breast cancer does not occur,recurrence of breast cancer [13]: Recurrence of breast cancer dose not occur; tumor burden [14]: reduced tumor burden; tumor burden [15]: reduced tumor burden; recurrence of colon cancer [16]: Recurrence of colon cancer does not occur
"CN(CCOc1ccc(C[C@H](Nc2ccccc2C(=O)c2ccccc2)C(=O)O)cc1)c1nc2ccccc2o1 [structure (II), 3-{4-[2-benzoxazol-2-ylmethylamino)ethoxy](phenyl}-(2S)-((2-benzoylphenyl)amino)propionic acid]",8.83±0.05,reduced tumor burden,further reduced tumor burden,reduced tumor burden,Recurrence of breast cancer does not occur,recurrence of breast cancer does not occur,recurrence of breast cancer [13]: Recurrence of breast cancer dose not occur; tumor burden [14]: reduced tumor burden; recurrence of colon cancer [16]: Recurrence of colon cancer does not occur
